Experimental data reported in US10696629B2, “Crystalline form of dextral oxiracetam, preparation method therefor and use thereof” (CHONGQING RUNZE PHARMACEUTICAL COMPANY LIMITED, priority 2016, dated 2020).
Entries after “also recorded” stand apart in the source; their conditions may differ.

Experiments:
[1] = variable-temperature powder X-ray diffraction (crystal form stability at high temperatures); format: physicochemical; conditions: heated from 30° C. to 80° C.; powder X-ray diffraction at 35, 45, 55, 65 and 75° C.
Procedure: The crystalline form III of dextral oxiracetam of the invention was placed on a single crystal silicon sample stage, heated from 30° C. to 80° C., and subjected to powder X-ray diffraction measurement at 35° C., 45° C., 55° C., 65° C. and 75° C., respectively. […] It can be seen that the crystalline form III of dextral oxiracetam of the invention has good stability at high temperatures. […] It can be confirmed that the crystalline form III of dextral oxiracetam is temperature stable. When the crystalline form III of dextral oxiracetam of the invention is used for storage or formulation processing, the requirements on processing and storage temperatures are reduced.

solubility in water = format: physicochemical

Question: Which results are given for `NC(=O)CN1C[C@H](O)CC1=O` [dextral oxiracetam]?
Answer: crystal transformation on heating (stability at high temperatures) [1]: does not show a phenomenon of crystal transformation; also recorded: does not exhibit crystal transformation phenomenon; solubility (solubility in water): ≥ 100 mg/mL
